# Experimental data: US20240369551A1 (priority 2021, published 2024)
# Ends that are not written are not given here.
# Tested on: COVID19 anti-S1 IgG
# Assay: UV-vis aggregation test of peptide-coated nanoparticles (Examples 1, 6, 7, 8)
# Format: binding
# Settings: silver nanoparticles (AgNP, 10 nm), streptavidin-biotin
substance,measurement,value
"S14P5-Ag: S14P5 epitope conjugated onto silver nanoparticles (AgNP, 10 nm) through the streptavidin-biotin approach (TESNKKFLPFQQFGRDIA; also: conjugated to silver nanoparticles via streptavidin-biotin)",response upon introduction of COV19 anti-S1 IgGs,visible nanoparticle precipitation
